Assay results: ChEMBL document CHEMBL3797050, “Erinacine S, a Rare Sesterterpene from the Mycelia of Hericium erinaceus” (2016)
Calls of active or inactive are those of the source. The calls are words filed in the database; no cut-off is given here.

What was measured:
Mus musculus [1] = experiment: Decrease in amyloid plaque burden in cerebral cortex of APPswe/PSIdeltaE9 double transgenic C57BL/6J mouse at 30 mg/kg/day administered via oral gavage for 30 days by AB10 staining based immunohistochemical assay; format: functional; design: scale not given: the % may be the effect or the level left
Mus musculus [2] = experiment: Increase in insulin degrading enzyme in cerebral cortex of APPswe/PSIdeltaE9 double transgenic C57BL/6J mouse at 30 mg/kg/day administered via oral gavage for 30 days by Western blot analysis; format: functional
Mus musculus [3] = experiment: Effect on neprilysin levels in cerebral cortex of APPswe/PSIdeltaE9 double transgenic C57BL/6J mouse at 30 mg/kg/day administered via oral gavage for 30 days by Western blot analysis; format: functional, organism-based
Mus musculus [4] = experiment: Increase in nerve growth factor levels in cerebral cortex of APPswe/PSIdeltaE9 double transgenic C57BL/6J mouse at 30 mg/kg/day administered via oral gavage for 30 days; format: functional, organism-based

CC(C)C1=C2C3=CC=C(C=O)C[C@H](O[C@@H]4OC[C@@H](O)[C@H](O)[C@H]4O)[C@]3(C)CC[C@@]2(C)CC1
Activity (Mus musculus [1]): 40.2% | Activity (Mus musculus [2]): 130.5% | Activity (Mus musculus [3]): inactive | Activity (Mus musculus [4]): inactive

CC(C)C1=C2[C@H]3CCC4=C(O)C(=O)[C@@]5(O)CO[C@H]6O[C@@H]([C@@H]4[C@]65O)[C@]3(C)CC[C@@]2(C)CC1
Activity (Mus musculus [1]): 38.1% | Activity (Mus musculus [2]): 141.1% | Activity (Mus musculus [3]): inactive | Activity (Mus musculus [4]): inactive
